Results on one compound are retold here after patent US12590100B2, “Tetrahydro-spiroindoline-pyrrolopyrrole-triones inhibitors of the NRF2-β-TrCP interaction for use in the treatment of fatty liver disease” (Universidad Autonoma De Madrid, priority 2021, dated 2026).

One assay deals with NRF2. Nature of the assay: NRF2/HO-1 induction in Keap1−/− versus Keap1+/+ MEFs. Type of assay: cell-based, mouse. To be noted: PHAR 10 μM, 8 h. As for the experimental part: FIG. 5. PHAR-mediated NRF2 activation is independent of KEAP1 and is responsible for the increase in the expression of its targets. (A-D) Serum-deprived MEFs originating from wild-type (WT) or KEAP1 null (Keap1−/−) mice were treated with 10 μM of PHAR for the indicated times. 0.1% DMSO was used as a vehicle. A), representative immunoblots of NRF2, HO1, KEAP1, LAMINB, and GAPDH as loading controls. B) and C), densitometric analysis of NRF2 and HO1 protein levels of the representative immunoblots of (A), expressed as a ratio of NRF2/LAMINB or HO1/GAPDH. The data is depicted as means±SEM (n=3). Statistical analysis was performed with two-way ANOVA followed by the Bonferroni test to check inter-group differences. D), the mRNA levels of Hmox-1, Nqo1, Aox1, Gc1c, and Gc1m were determined after 8 h of 10 μM PHAR by means of qRT-PCR and normalized by means of average Gapdh, Tbp, and β-actin. The data is depicted as mean±SEM (n=3). […] F) and G), densitometric analysis of NRF2 and HO1 protein levels of the representative immunoblots of (E), expressed as a ratio of NRF2/LAMINB or HO1/GAPDH. […] H), the mRNA levels of Hmox-1, Nqo1, Aox1, Gclc, and Gclm were determined after 8 h of 10 μM PHAR by means of qRT-PCR and normalized by means of average Gapdh, Tbp, and β-actin. […]

Assay [1] relates to transcriptional activity of NRF2. The experiment in a line: ARE luciferase reporter assay in MCF-7 c32 ARE-LUC cells. The class given is cell-based. The following applies: 9 μM, 16 h. As for the experimental part:
FIG. 4. […] MEFs in serum-depleted conditions were subjected to (A-C) 1 μM, 3 μM, or 10 μM of PHAR and 10 μM of SFN as a positive control for 16 h; or (D-F) 10 μM of PHAR for the indicated times. In both experiments, 0.1% DMSO was used as a vehicle. A), representative immunoblots of NRF2, HO1, KEAP1, LAMINB, and GAPDH as loading controls. B) and C), densitometric analysis of NRF2 and HO1 protein levels of the representative immunoblots depicted in (A), expressed as a ratio of NRF2/LAMINB or HO1/GAPDH. The data is depicted as means±SEM (n=3). Statistical analysis was performed with one-way ANOVA followed by the Bonferroni test to check inter-group differences. *p<0.05; ***p<0.001 vs. 0. D), representative immunoblots of NRF2, HO1, KEAP1, LAMINB, and GAPDH as loading controls. E) and F), Densitometric analysis of NRF2 and HO1 protein levels of the representative immunoblots of (D), expressed as a ratio of NRF2/LAMINB or HO1/GAPDH. The data is depicted as means±SEM (n=3). Statistical analysis was performed with one-way ANOVA followed by the Bonferroni test to check inter-group differences. *p<0.05; ***p<0.001 vs. 0. […] Luciferase activity was measured after 16 h of treatment. […] The mRNA levels of Hmox1, Nqo1, Aox1, Glc, and Gclm after 8 h of treatment were determined by means of pRT-PCR and normalized by means of average LaminB, Gapdh, and β-actin. […]
On the technique in general: In a reporter assay the amount or activity of a reporter protein is the signal.

With `O=C1[C@@H]2[C@H](Cc3c[nH]c4ccccc34)N[C@]3(C(=O)Nc4ccc(Cl)cc43)[C@@H]2C(=O)N1c1ccc2c(c1)OCCO2` [PHAR], the “mRNA levels of other NRF2 targets in Keap1−/− compared with Keap1+/+ MEFs” value in the assay with NRF2 is given as “The same result was obtained”. Further, in assay [1], the “increase in luciferase activity” value was around 4 fold.
